Key:
[1] = test system: Phaeosphaeria nodorum (Septoria nodorum); experiment: Phaeosphaeria nodorum (Septoria nodorum) / wheat / leaf disc preventative (glume blotch); format: in vivo; settings: Parastagonospora nodorum, foliar, wheat leaf segments cv. Kanzler, inoculated 2 days after application, assessed 5-7 days after application, compared to untreated control
Procedure: Example B8: Phaeosphaeria Nodorum (Septoria nodorum)/Wheat/Leaf Disc Preventative (Glume Blotch) Wheat leaf segments cv. Kanzler are placed on agar in a multiwell plate (24-well format) and sprayed with the formulated test compound diluted in water. The leaf disks are inoculated with a spore suspension of the fungus 2 days after application. The inoculated test leaf disks are incubated at 20° C. and 75% relative humidity under a light regime of 12 h light/12 h darkness in a climate cabinet and the activity of a compound is assessed as percent disease control compared to untreated when an appropriate level of disease damage appears in untreated check leaf disks (5-7 days after application).

Alternaria solani = Alternaria solani / tomato / leaf disc (early blight); format: in vivo; settings: foliar, tomato leaf disks cv. Baby, inoculated 2 days after application, assessed 5-7 days after application, compared to untreated control
Procedure: Example B1: Alternaria solani/Tomato/Leaf Disc (Early Blight) Tomato leaf disks cv. Baby are placed on agar in multiwell plates (24-well format) and sprayed with the formulated test compound diluted in water. The leaf disks are inoculated with a spore suspension of the fungus 2 days after application. The inoculated leaf disks are incubated at 23° C./21° C.

[2] = test system: Botryotinia fuckeliana (Botrytis cinerea); experiment: Botryotinia fuckeliana (Botrytis cinerea) / liquid culture (gray mould); format: cell-based; settings: liquid culture (Vogels broth), growth inhibition photometrically 3-4 days after application, compared to untreated control
Procedure: (§1) Example B2: Botryotinia fuckeliana (Botrytis cinerea)/Liquid Culture (Gray Mould) Conidia of the fungus from cryogenic storage are directly mixed into a nutrient broth (Vogels broth). After placing a DMSO solution of test compound into a microtiter plate (96-well format), the nutrient broth containing the fungal spores is added. The test plates are incubated at 24° C. and the inhibition of growth is determined photometrically 3-4 days after application.

Fusarium culmorum = experiment: microbe, parasite or virus in culture; format: cell-based; settings: read-out: control of Fusarium culmorum
[3] = test system: Mycosphaerella arachidis (Cercospora arachidicola); experiment: Mycosphaerella arachidis (Cercospora arachidicola) / liquid culture (early leaf spot); format: cell-based; settings: liquid culture (potato dextrose broth), growth inhibition photometrically 4-5 days after application, compared to untreated control
Procedure: as §1, with “B10: Mycosphaerella arachidis (Cercospora arachidicola)/Liquid” for “B2: Botryotinia fuckeliana (Botrytis cinerea)/Liquid”, “(Early Leaf Spot)” for “(Gray Mould)”, “(potato dextrose broth)” for “(Vogels broth).”, “4-5” for “3-4”

Sclerotinia sclerotiorum = Sclerotinia sclerotiorum / liquid culture (cottony rot); format: cell-based; settings: liquid culture (potato dextrose broth), growth inhibition photometrically 3-4 days after application, compared to untreated control
Procedure: Example B14: Sclerotinia sclerotiorum/Liquid Culture (Cottony Rot) Mycelia fragments of a newly grown liquid culture of the fungus are directly mixed into a nutrient broth (potato dextrose broth). After placing a DMSO solution of test compound into a microtiter plate (96-well format) the nutrient broth containing the fungal material is added. The test plates are incubated at 24° C. and the inhibition of growth is determined photometrically 3-4 days after application.

[4] = test system: Glomerella lagenarium (Colletotrichum lagenarium); experiment: Glomerella lagenarium (Colletotrichum lagenarium) / liquid culture (anthracnose); format: cell-based; settings: Colletotrichum orbiculare, liquid culture (potato dextrose broth), growth inhibition photometrically 3-4 days after application, compared to untreated control
Procedure: as §1, with “B3: Glomerella lagenarium (Colletotrichum lagenarium)/Liquid” for “B2: Botryotinia fuckeliana (Botrytis cinerea)/Liquid”, “(Anthracnose)” for “(Gray Mould)”, “(potato dextrose” for “(Vogels”, “measured” for “determined”

[5] = test system: Blumeria graminis f. sp. tritici (Erysiphe graminis f. sp. tritici); experiment: Blumeria graminis f. sp. tritici / wheat / leaf disc preventative (powdery mildew); format: in vivo; settings: foliar, wheat leaf segments cv. Kanzler, inoculated 1 day after application, assessed 6-8 days after application, compared to untreated control
Procedure: Example B4: Blumeria graminis f. sp. tritici (Erysiphe graminis f. sp. tritici)/Wheat/Leaf Disc Preventative (Powdery Mildew on Wheat) Wheat leaf segments cv. Kanzler are placed on agar in a multiwell plate (24-well format) and sprayed with the formulated test compound diluted in water. The leaf disks are inoculated by shaking powdery mildew infected plants above the test plates 1 day after application. The inoculated leaf disks are incubated at 20° C. and 60% relative humidity under a light regime of 24 h darkness followed by 12 h light/12 h darkness in a climate chamber and the activity of a compound is assessed as percent disease control compared to untreated when an appropriate level of disease damage appears on untreated check leaf segments (6-8 days after application).

Pyrenophora teres = Pyrenophora teres / barley / leaf disc preventative (net blotch); format: in vivo; settings: foliar, barley leaf segments cv. Hasso, inoculated 2 days after application, assessed 5-7 days after application, compared to untreated control
Procedure: Example B12: Pyrenophora teres/Barley/Leaf Disc Preventative (Net Blotch) Barley leaf segments cv. Hasso are placed on agar in a multiwell plate (24-well format) and sprayed with the formulated test compound diluted in water. The leaf segments are inoculated with a spore suspension of the fungus 2 days after application. The inoculated leaf segments are incubated at 20° C. and 65% relative humidity under a light regime of 12 h light/12 h darkness in a climate cabinet and the activity of a compound is assessed as disease control compared to untreated when an appropriate level of disease damage appears in untreated check leaf segments (5-7 days after application).

[6] = test system: Mycosphaerella graminicola (Septoria tritici); experiment: Mycosphaerella graminicola (Septoria tritici) / liquid culture (Septoria blotch); format: cell-based; settings: Zymoseptoria tritici, liquid culture (potato dextrose broth), growth inhibition photometrically 4-5 days after application, compared to untreated control
Procedure: as §1, with “B15: Mycosphaerella graminicola (Septoria tritici/Liquid” for “B2: Botryotinia fuckeliana (Botrytis cinerea)/Liquid”, “(Septoria Blotch)” for “(Gray Mould)”, “(potato dextrose” for “(Vogels”, “4-5” for “3-4”

[7] = test system: Monographella nivalis (Microdochium nivale); experiment: Monographella nivalis (Microdochium nivale) / liquid culture (foot rot cereals); format: cell-based; settings: liquid culture (potato dextrose broth), growth inhibition photometrically 4-5 days after application, compared to untreated control
Procedure: as §1, with “B9: Monographella nivalis (Microdochium nivale)/Liquid” for “B2: Botryotinia fuckeliana (Botrytis cinerea)/Liquid”, “(Foot Rot Cereals)” for “(Gray Mould)”, “(potato dextrose” for “(Vogels”, “4-5” for “3-4”

C[C@H]1c2sccc2[C@@H](c2cnn(C)c2)CN1C(=O)c1cc(-c2ccc(F)cc2F)on1 (racemic) [Compound P-14, [5-(2,4-difluorophenyl)isoxazol-3-yl]-[rac-(4R,7S)-7-methyl-4-(1-methylpyrazol-4-yl)-5,7-dihydro-4H-thieno[2,3-c]pyridin-6-yl]methanone]
≥ 80%: pest or weed control at 200 ppm [1] | pest or weed control at 200 ppm (Alternaria solani) | inhibition of growth at 20 ppm [2] | inhibition of growth at 20 ppm (Fusarium culmorum) | inhibition of growth at 20 ppm [3] | inhibition of growth at 20 ppm (Sclerotinia sclerotiorum) | inhibition of growth at 20 ppm [4] | pest or weed control at 200 ppm [5] | pest or weed control at 200 ppm (Pyrenophora teres) | inhibition of growth at 20 ppm [6]

C[C@H]1c2sccc2[C@@H](c2cnn(C)c2)CN1C(=O)c1nnc(-c2ccc(F)cc2F)s1 [Compound P-2, [5-(2,4-difluorophenyl)-1,3,4-thiadiazol-2-yl]-[(4R,7S)-7-methyl-4-(1-methylpyrazol-4-yl)-5,7-dihydro-4H-thieno[2,3-c]pyridin-6-yl]methanone]
≥ 80%: pest or weed control at 200 ppm [1] | pest or weed control at 200 ppm (Alternaria solani) | inhibition of growth at 20 ppm [2] | inhibition of growth at 20 ppm (Fusarium culmorum) | inhibition of growth at 20 ppm [7] | inhibition of growth at 20 ppm [3] | inhibition of growth at 20 ppm (Sclerotinia sclerotiorum) | inhibition of growth at 20 ppm [4] | pest or weed control at 200 ppm [5] | pest or weed control at 200 ppm (Pyrenophora teres) | inhibition of growth at 20 ppm [6]

Cc1c([C@H]2CN(C(=O)c3cc(-c4ccc(F)cc4F)on3)Cc3ccsc32)cnn1C [Compound P-3, [5-(2,4-difluorophenyl)isoxazol-3-yl]-[(7S)-7-(1,5-dimethylpyrazol-4-yl)-6,7-dihydro-4H-thieno[3,2-c]pyridin-5-yl]methanone]
≥ 80%: pest or weed control at 200 ppm [1] | pest or weed control at 200 ppm (Alternaria solani) | inhibition of growth at 20 ppm [2] | inhibition of growth at 20 ppm (Fusarium culmorum) | inhibition of growth at 20 ppm [7] | inhibition of growth at 20 ppm (Sclerotinia sclerotiorum) | inhibition of growth at 20 ppm [4] | pest or weed control at 200 ppm [5] | pest or weed control at 200 ppm (Pyrenophora teres) | inhibition of growth at 20 ppm [6]

C[C@H]1c2sccc2[C@@](C)(c2cnn(C)c2)CN1C(=O)c1nnc(-c2ccc(F)cc2F)s1 [Compound P-6, [5-(2,4-difluorophenyl)-1,3,4-thiadiazol-2-yl]-[(4R,7S)-4,7-dimethyl-4-(1-methylpyrazol-4-yl)-5,7-dihydrothieno[2,3-c]pyridin-6-yl]methanone]
≥ 80%: pest or weed control at 200 ppm [1] | pest or weed control at 200 ppm (Alternaria solani) | inhibition of growth at 20 ppm [2] | inhibition of growth at 20 ppm (Fusarium culmorum) | inhibition of growth at 20 ppm [7] | inhibition of growth at 20 ppm [3] | inhibition of growth at 20 ppm (Sclerotinia sclerotiorum) | inhibition of growth at 20 ppm [4] | pest or weed control at 200 ppm [5] | pest or weed control at 200 ppm (Pyrenophora teres) | inhibition of growth at 20 ppm [6]

Cn1cc(C2(C)CN(C(=O)c3nnc(-c4ccc(F)cc4F)s3)Cc3sccc32)cn1 (centres unmarked) [Compound P-18, methylpyrazol-4-yl)-5,7-[5-(2,4-difluorophenyl)-1,3,4-thiadiazol-2-yl]-[4-methyl-4-(1-dihydrothieno[2,3-c]pyridin-6-yl]methanone]
≥ 80%: pest or weed control at 200 ppm [1] | pest or weed control at 200 ppm (Alternaria solani) | inhibition of growth at 20 ppm [2] | inhibition of growth at 20 ppm (Fusarium culmorum) | inhibition of growth at 20 ppm [3] | inhibition of growth at 20 ppm (Sclerotinia sclerotiorum) | inhibition of growth at 20 ppm [4] | pest or weed control at 200 ppm [5] | pest or weed control at 200 ppm (Pyrenophora teres) | inhibition of growth at 20 ppm [6]

Cc1c(C2CN(C(=O)c3nnc(-c4ccc(F)cc4F)s3)Cc3sccc32)cnn1C (centres unmarked) [Compound P-25, [5-(2,4-difluorophenyl)-1,3,4-thiadiazol-2-yl]-[4-(1,5-dimethylpyrazol-4-yl)-5,7-dihydro-4H-thieno[2,3-c]pyridin-6-yl]methanone]
≥ 80%: pest or weed control at 200 ppm [1] | pest or weed control at 200 ppm (Alternaria solani) | inhibition of growth at 20 ppm [2] | inhibition of growth at 20 ppm (Fusarium culmorum) | inhibition of growth at 20 ppm [7] | inhibition of growth at 20 ppm (Sclerotinia sclerotiorum) | inhibition of growth at 20 ppm [4] | pest or weed control at 200 ppm [5] | pest or weed control at 200 ppm (Pyrenophora teres) | inhibition of growth at 20 ppm [6]

Reference: patent US20250049035A1, “MICROBIOCIDAL BICYCLE HETEROCYCLIC DERIVATIVES” (SYNGENTA CROP PROTECTION AG, priority 2021, published 2025)
